Activity calls are given as the source filed them. The rule behind the calls is not given here.
Legend:
[1] = molecular target: T1, Free fatty acid receptor 1 (Homo sapiens, UniProt O14842); assay: Agonist activity at GPR40 expressed in CHO cells after 20 seconds by aequorin bioluminescence assay in presence of 0.1 % human serum; assay type: functional, cell-based
[2] = molecular target: T1, Free fatty acid receptor 1; assay: Agonist activity at GPR40 expressed in CHO cells assessed as intrinsic efficacy after 20 seconds by aequorin bioluminescence assay in presence of 0.1 % human serum relative to AM-1638; assay type: functional, cell-based
[3] = molecular target: T1, Free fatty acid receptor 1; assay: Agonist activity at GPR40 expressed in CHO cells after 20 seconds by aequorin bioluminescence assay in presence of 100 % human serum; assay type: functional, cell-based
[4] = Clearance in cynomolgus monkey at 2 mg/kg, po and 0.5 mg/kg, iv; assay type: ADME, organism-based, Macaca fascicularis; settings: in vivo
Mus musculus [5] = assay: Antidiabetic activity in DIO BDF mouse model assessed as reduction in blood glucose-challenge excursion at 60 mg/kg, po administered 1 hr prior glucose-challenge challenge measured after 1 hr by OGTT ( Rvb = 462 mg/dl ); assay type: functional
[6] = Clearance in mouse at 5 mg/kg, po and 1 mg/kg, iv; assay type: ADME, organism-based; settings: in vivo
[7] = Oral bioavailability in mouse at 5 mg/kg; assay type: ADME, organism-based; settings: in vivo
[8] = Clearance in rat at 2 mg/kg, po and 0.5 mg/kg, iv; assay type: ADME, organism-based; settings: in vivo
Mus musculus [9] = assay: Antidiabetic activity in DIO BDF mouse model assessed as improvement in glucose-challenge AUC(0 to 60 mins) at 60 mg/kg, po administered 1 hr prior glucose-challenge challenge measured after 1 hr by OGTT; assay type: functional
[10] = Half life in rat at 0.5 mg/kg, iv; assay type: ADME, organism-based; design: dose 0.5 mg/kg, route intravenous; settings: in vivo
[11] = Half life in mouse at 1 mg/kg, iv; assay type: ADME, organism-based; design: dose 1 mg/kg, route intravenous; settings: in vivo
Mus musculus [12] = assay: Antidiabetic activity in DIO BDF mouse model assessed as increase in plasma insulin level at 60 mg/kg, po administered 1 hr prior glucose-challenge challenge measured after 1 hr by ELISA; assay type: functional, organism-based; design: dose 60 mg/kg
[13] = Tmax in mouse at 5 mg/kg, po and 1 mg/kg, iv; assay type: ADME, organism-based; settings: in vivo
[14] = Half life in cynomolgus monkey at 0.5 mg/kg, iv; assay type: ADME, organism-based, Macaca fascicularis; design: dose 0.5 mg/kg, route intravenous; settings: in vivo
[15] = Tmax in rat at 2 mg/kg, po and 0.5 mg/kg, iv; assay type: ADME, organism-based; settings: in vivo
[16] = Cmax in mouse at 5 mg/kg, po; assay type: ADME, organism-based; design: dose 5 mg/kg, route oral; settings: in vivo
[17] = Cmax in rat at 2 mg/kg, po; assay type: ADME, organism-based; design: dose 2 mg/kg, route oral; settings: in vivo
[18] = Oral bioavailability in rat at 2 mg/kg; assay type: ADME, organism-based; settings: in vivo
Mus musculus [19] = assay: Antidiabetic activity in DIO BDF mouse model assessed as increase in insulin AUC at 60 mg/kg, po administered 1 hr prior glucose-challenge challenge measured after 1 hr by ELISA; assay type: functional, organism-based; design: dose 60 mg/kg
[20] = Cmax in cynomolgus monkey at 2 mg/kg, po; assay type: ADME, organism-based, Macaca fascicularis; design: dose 2 mg/kg, route oral; settings: in vivo
[21] = Oral bioavailability in cynomolgus monkey at 2 mg/kg; assay type: ADME, organism-based, Macaca fascicularis; settings: in vivo
[22] = Tmax in cynomolgus monkey at 2 mg/kg, po and 0.5 mg/kg, iv; assay type: ADME, organism-based, Macaca fascicularis; settings: in vivo

T1 sequence (O14842 whole entry): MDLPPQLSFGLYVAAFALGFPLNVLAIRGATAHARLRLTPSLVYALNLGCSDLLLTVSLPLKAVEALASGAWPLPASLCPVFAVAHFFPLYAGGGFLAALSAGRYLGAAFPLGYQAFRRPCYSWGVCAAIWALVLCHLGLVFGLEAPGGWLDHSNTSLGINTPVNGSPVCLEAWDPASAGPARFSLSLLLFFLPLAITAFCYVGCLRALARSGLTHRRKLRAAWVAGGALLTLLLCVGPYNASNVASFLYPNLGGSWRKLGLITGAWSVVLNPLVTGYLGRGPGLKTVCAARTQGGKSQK

Structure (SMILES) | EC50 [1] | Efficacy [2] | further results
COc1ccc(F)c(-c2ccc(COc3cccc([C@@H](CC(=O)O)C4CCCC4)c3)cc2C(C)(C)C)c1 | 1310 nM | 59% | 
COc1ccc(F)c(-c2ccc(COc3cccc([C@@H](CC(=O)O)C(F)(F)F)c3)cc2C(C)(C)C)c1 | 2100 nM | 111% | 
COc1ccc(F)c(-c2ccc(COc3cccc([C@H](C)CC(=O)O)c3)cc2C(C)(C)C)c1 | 770 nM | 107% | 
COc1ccc(F)c(-c2ccc(COc3cccc([C@@H](CC(=O)O)C4CCCCC4)c3)cc2C(C)(C)C)c1 | 2100 nM | 41% | 
COc1ccc(F)c(-c2ccc(COc3cccc([C@@H](CC(=O)O)C4CC4)c3)cc2C(C)(C)C)c1 | 370 nM | 103% | EC50 [3]: 1900 nM
CCC[C@H](CC(=O)O)c1cccc(OCc2ccc(-c3cc(OC)ccc3F)c(C(C)(C)C)c2)c1 | 690 nM | 94% | 
COc1ccc(F)c(-c2ccc(COc3cccc([C@@H](CC(=O)O)C4CCC4)c3)cc2C(C)(C)C)c1 | 420 nM | 106% | 
CC[C@H](CC(=O)O)c1cccc(OCc2ccc(-c3cc(OC)ccc3F)c(C(C)(C)C)c2)c1 | 680 nM | 110% | 
COc1ccc(F)c(-c2ccc(COc3cccc([C@@H](CC(=O)O)C(C)C)c3)cc2C(C)(C)C)c1 | 2200 nM | 86% | 
COc1ccc(F)c(-c2ccc(COc3cccc(CCC(=O)O)c3)cc2C(C)(C)C)c1 | 900 nM | 100% | 
COc1ccc(F)c(-c2ccc(COc3cccc([C@@H](CC(=O)O)C4CC4)c3)cc2C2=CCCC2(C)C)c1 |  |  | clearance [4]: 13.5 mL/min/kg; Activity (Mus musculus [5]): 204 mg/dL; EC50 [3]: 710 nM; clearance [6]: 3 mL/min/kg; bioavailability [7]: > 100%; clearance [8]: 15.2 mL/min/kg; Activity (Mus musculus [9]): 46%; half-life [10]: 1.8 h; half-life [11]: 2 h; Activity (Mus musculus [12]): Active; Tmax [13]: 1 h; half-life [14]: 2.1 h; Tmax [15]: 3.5 h; Cmax [16]: 14 µM; Cmax [17]: 3.6 µM; bioavailability [18]: 72%; Activity (Mus musculus [19]): Active; Cmax [20]: 5.1 µM; bioavailability [21]: 71%; Tmax [22]: 2 h
COc1ccc(F)c(-c2ccc(COc3cccc(CCC(=O)O)c3)cc2)c1 | 1200 nM | 104% | 
COc1ccc(F)c(-c2ccc(COc3cccc([C@H](CC(=O)O)C4CC4)c3)cc2C2=CCCC2(C)C)c1 | 1100 nM | 76% | EC50 [3]: 34000 nM
CC#C[C@@H](CC(=O)O)c1ccc(OCc2cccc(-c3ccc(C(F)(F)F)cc3)c2)cc1 |  |  | Activity (Mus musculus [5]): 317 mg/dL; Activity (Mus musculus [9]): 34%; Activity (Mus musculus [12]): inactive
CC/C=C\C/C=C\C/C=C\C/C=C\C/C=C\C/C=C\CCC(=O)O [DOCONEXENT] | 36000 nM | 67% | 
COc1ccc(F)c(-c2ccc(COc3cccc([C@@H](CC(=O)O)c4ccccc4)c3)cc2C(C)(C)C)c1 | 1200 nM | 80% | 

Further lines, with some results ahead:

EC50 [1] | Efficacy [2] | Structure (SMILES) | further results
7700 nM | 105% | CC#CC(CC(=O)O)c1ccc(OCc2ccc(-c3ccccc3)cc2)cc1 (racemic) | 
2300 nM | 97% | CC#C[C@H](CC(=O)O)c1ccc(OCc2ccc(-c3cc(OC)ccc3F)cc2)cc1 | 
1900 nM | 96% | COc1ccc(F)c(-c2ccc(COc3ccc(CCC(=O)O)cc3)cc2)c1 | 
2300 nM | 98% | CC#CC(CC(=O)O)c1ccc(OCc2ccc(-c3cccc(OC)c3)cc2)cc1 (racemic) | 
650 nM | 47% | CC#C[C@@H](CC(=O)O)c1ccc(OCc2ccc(-c3cccc(OC)c3)cc2)cc1 | 
480 nM | 107% | COc1ccc(F)c(-c2ccc(COc3cccc([C@@H](CC(=O)O)C4CC4)c3)cc2)c1 | EC50 [3]: 38000 nM
4000 nM | 99% | CC#C[C@H](CC(=O)O)c1ccc(OCc2ccc(-c3cccc(OC)c3)cc2)cc1 | 
